These results are taken from patent US11413250B2, “Shape changing drug delivery devices and methods” (Incept, LLC, priority 2015, dated 2022).

Each structure is given as a SMILES string.

The conditions of the data set: in vivo test of Example 17. On the procedure: The tolerability, pharmacokinetics, and pharmacodynamics of the formulations from examples 1 and 2 were evaluated in Dutch belted rabbits through 6 months. 112 eyes of naïve Dutch belted rabbits ([…]) were bilaterally dosed with either a necked fiber or a coiled fiber and were sacrificed at 1, 3 and 6 months to test for biocompatibility or pharmacokinetics.

As for `CNC(=O)c1ccccc1Sc1ccc2c(/C=C/c3ccccn3)n[nH]c2c1` [Axitinib], the “Toxicity of the delivered amounts” value is given as “not toxic”.
